# Experimental data: the supplement of paper PMC10702517
# ± gives the standard deviation.
# Assay: chemical recovery into PDMS from spiked human plasma; higher = better extraction
# Details: pooled human plasma; extraction method: PES with PDMS; equilibration time (d): 1
row,Structure (SMILES),chemical recovery into PDMS
1,Fc1ccc([C@@H]2CCNC[C@H]2COc2ccc3c(c2)OCO3)cc1 [Paroxetine],0.404 ± 0.21%
2,Oc1cc(Cl)ccc1Oc1ccc(Cl)cc1Cl [Triclosan],16 ± 1.1%
3,O=P(OCCCl)(OCCCl)OCCCl [Tris(2-chloroethyl)phosphate],37.5 ± 1.4%
4,"CN1CCN(C)C1=O [1,3-Dimethyl-2-imidazolidinone]",3.18 ± 2.2%
5,CN(C)CCOC(c1ccccc1)c1ccccc1 [Diphenhydramine],0.00464 ± 0.0041%
6,CN1C(=O)CC[C@H]1c1cccnc1 [Cotinine],6.6 ± 0.43%
7,Cc1nc2ccccc2s1 [2-Methylbenzothiazole],8.73 ± 6%
8,CN/C(=N\[N+](=O)[O-])NCc1cnc(Cl)s1 [Clothianidin],0.813 ± 0.031%
9,O=C1NCCN1Cc1ccc(Cl)nc1 [Imidacloprid-urea],6.18 ± 0.38%
10,"c1ccc2c(c1)=c1ccc3c4c(ccc=2c14)=c1ccccc1=3 [Indeno(1,2,3-cd)fluoranthene]",70.5 ± 4%

# Same assay, conditions: pooled human plasma; extraction method: PES with PDMS; equilibration time (d): 3
row,Structure (SMILES),chemical recovery into PDMS
1,CCCNCCOc1c(Cl)cc(Cl)cc1Cl [Prochloraz BTS403-48],0.604 ± 0.12%
2,CCCCCCCCCCCC(=O)N(CCO)CCO [Lauryl diethanolamide],24.3 ± 2.5%
3,c1cc2c3c(c1)ccc1cccc(c13)C2 [4H-Cyclopenta(def)phenanthrene],93.2 ± 14%
4,CCCC1COC(Cn2cncn2)(c2ccc(Cl)cc2Cl)O1 (stereo unspecified) [Propiconazole],41 ± 3.7%
5,COC(=O)Nc1nc2cc(C(=O)c3ccccc3)ccc2[nH]1 [Mebendazole],21 ± 1.4%
6,Cc1cccc(C)c1N(Cn1cccn1)C(=O)C[S+](C)[O-] (stereo unspecified) [Metazachlor BH 479-11],9.79 ± 2.3%
7,COc1ccccc1Oc1c(NS(=O)(=O)c2ccc(C(C)(C)C)cc2)nc(-c2ncccn2)nc1OCCO [Bosentan],0.517 ± 0.46%
8,CCCc1nc2c(C)cc(-c3nc4ccccc4n3C)cc2n1Cc1ccc(-c2ccccc2C(=O)O)cc1 [Telmisartan],0.817 ± 0.34%
9,O=C1Nc2ccc(Cl)cc2C(c2ccccc2)=NC1O (stereo unspecified) [Oxazepam],3.65 ± 0.36%
10,O=Cc1ccccc1Nc1ccccc1Cl [2-(2-(Chlorophenyl)amino)benzaldehyde],40.9 ± 4%
11,CCCCCCCCn1sccc1=O [2-Octyl-4-isothiazolin-3-one],35.5 ± 1.5%
12,"Nc1ccc2c(n1)[nH]c1ccccc12 [2-Amino-9H-pyrido[2,3-b]indole (AalphaC)]",3.49 ± 1.2%
13,CCNc1nc(NCC)nc(SC)n1 [Simetryn],25.4 ± 8.6%
14,Cc1nc2n(c(=O)c1CCN1CCC(c3noc4cc(F)ccc34)CC1)CCCC2 [Risperidone],0.000765 ± 0.0018%
15,CSc1nnc(C(C)(C)C)c(=O)n1N [Metribuzin],25.2 ± 1.9%
16,Cc1cc(O)cc(C)c1[S+](C)[O-] (stereo unspecified) [Methiocarb-sulfoxide phenol],20.6 ± 0.91%

row,Structure (SMILES),chemical recovery into PDMS
1,CC1(C)CC(N)CC(C)(CN)C1 (stereo unspecified) [Isophorone diamine],0.0508 ± 0.069%
2,Cc1nc(N(C)C)nc(OC(=O)N(C)C)c1C [Pirimicarb],33.3 ± 1.8%
3,CCCN(CCC)c1c([N+](=O)[O-])cc(S(N)(=O)=O)cc1[N+](=O)[O-] [Oryzalin],10 ± 0.76%
4,CC(C)Nc1nc(N)nc(Cl)n1 [Desethylatrazine],16.9 ± 1.5%
5,CN[C@H]1CC[C@@H](c2ccc(Cl)c(Cl)c2)c2ccccc21 [Sertraline],0.434 ± 0.081%
6,c1ccc2ncccc2c1 [Quinoline],9.55 ± 7.5%
7,O=C(NC(=O)c1c(F)cccc1F)Nc1ccc(Cl)cc1 [Diflubenzuron],38.3 ± 2.3%
8,O=c1ccc2ccccc2[nH]1 [2-Hydroxyquinoline],15.6 ± 2%
9,C1=Cc2ccccc2Nc2ccccc21 [Iminostilbene],2.02 ± 2.1%
10,Brc1ccc(Oc2c(Br)cc(Br)cc2Br)c(Br)c1 [BDE100],99.1 ± 13%
11,CCC(=O)O[C@]1(C(=O)CCl)[C@@H](C)C[C@H]2[C@@H]3CCC4=CC(=O)C=C[C@]4(C)[C@@]3(F)[C@@H](O)C[C@@]21C [Clobetasol propionate],36.9 ± 2.1%
12,Fc1ccc([C@@H]2CCNC[C@H]2COc2ccc3c(c2)OCO3)cc1 [Paroxetine],0.313 ± 0.1%
13,Oc1cc(Cl)ccc1Oc1ccc(Cl)cc1Cl [Triclosan],21 ± 0.84%
14,O=P(OCCCl)(OCCCl)OCCCl [Tris(2-chloroethyl)phosphate],39.8 ± 1.5%
15,"CN1CCN(C)C1=O [1,3-Dimethyl-2-imidazolidinone]",2.57 ± 3%
